Assay [1] has as its target T1, purified recombinant human Aggrecanase-1 (rAgg1) (Homo sapiens, UniProt O75173).
T1 sequence (O75173 213-837): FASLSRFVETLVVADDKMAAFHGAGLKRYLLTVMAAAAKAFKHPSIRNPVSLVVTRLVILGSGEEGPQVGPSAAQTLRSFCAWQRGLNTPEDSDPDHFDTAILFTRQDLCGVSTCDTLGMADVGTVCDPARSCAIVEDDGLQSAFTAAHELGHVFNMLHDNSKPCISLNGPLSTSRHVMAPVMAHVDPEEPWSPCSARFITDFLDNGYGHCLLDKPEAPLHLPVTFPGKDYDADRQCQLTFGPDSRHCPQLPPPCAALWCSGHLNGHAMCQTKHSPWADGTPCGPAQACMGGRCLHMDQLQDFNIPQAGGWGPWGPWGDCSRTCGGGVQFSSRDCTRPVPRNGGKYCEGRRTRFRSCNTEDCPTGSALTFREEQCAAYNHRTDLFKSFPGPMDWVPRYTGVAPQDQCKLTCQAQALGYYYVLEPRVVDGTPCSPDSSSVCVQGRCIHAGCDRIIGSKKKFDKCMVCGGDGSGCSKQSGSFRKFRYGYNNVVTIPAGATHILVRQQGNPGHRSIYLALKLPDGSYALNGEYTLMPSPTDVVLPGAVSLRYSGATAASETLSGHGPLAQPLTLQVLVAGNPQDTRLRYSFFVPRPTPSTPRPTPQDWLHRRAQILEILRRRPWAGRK
The experiment in a line: In vitro fluorescence screen for Aggrecanase-1 inhibitors. More on the design: Agg1 % at concentration: scale not given here. As to conditions: for IC50: read-out: Agg1 IC50. Format: biochemical.

The target of assay [2] is T2, purified recombinant human Aggrecanase-2 (Ag2t-Phe628-Strep) (Homo sapiens, UniProt Q9UNA0).
T2 construct: the form used is denoted as Ag2t-Phe628-Strep (MW=41,737)
T2 sequence (Q9UNA0 262-628): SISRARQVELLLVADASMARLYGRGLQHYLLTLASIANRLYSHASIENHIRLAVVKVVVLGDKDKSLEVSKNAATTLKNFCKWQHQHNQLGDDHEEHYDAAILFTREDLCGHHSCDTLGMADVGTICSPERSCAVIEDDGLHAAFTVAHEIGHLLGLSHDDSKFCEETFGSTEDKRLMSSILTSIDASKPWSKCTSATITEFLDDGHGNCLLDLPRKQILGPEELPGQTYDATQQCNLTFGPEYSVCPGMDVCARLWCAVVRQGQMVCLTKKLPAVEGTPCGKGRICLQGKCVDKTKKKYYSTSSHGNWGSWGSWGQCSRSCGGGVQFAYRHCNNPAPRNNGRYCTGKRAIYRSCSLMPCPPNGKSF
The experiment in a line: In vitro fluorescence screen for Aggrecanase-2 inhibitors. Format: biochemical. As to conditions: for IC50: read-out: Agg 2 IC50.

Like-named read-outs stand apart in the source and are kept apart here.

The term IC50 denotes the concentration that inhibits the measured activity by half. In general, Ki refers to a measure of affinity in units of concentration, obtained from inhibition or displacement.

Consider `CC(C)(Cc1ccc(Cl)cc1)NC(=O)[C@H](CCC(=O)O)NC(=O)c1ccc(-c2cccs2)s1` [N^2-(2,2′-bithien-5-ylcarbonyl)-N-[2-(4-chlorophenyl)-1,1-dimethylethyl]-L-α-glutamine], for which the half-maximal inhibitory concentration (IC50) in assay [1] (Table 3) is less than 0.03 µM; in assay [2] (Table 3), 0.6 to 1.8 µM. For the same molecule, the Ki was 0.086 µM in assay [1] (Table 3, read-out: Ki Agg1) and 1.15 µM in assay [2] (Table 3, read-out: Ki Agg2).
Turning to `CC(C)(Cc1ccccc1)NC(=O)[C@H](CCC(=O)O)NC(=O)c1ccc(-c2nccs2)cc1` [N-(1,1-dimethyl-2-phenylethyl)-N^2-[4-(1,3-thiazol-2-yl)benzoyl]-L-α-glutamine], in assay [1] (Table 3), the IC50 came to 0.27 µM. Moreover, in assay [2] (read-out: Agg 2 % at concentration), the inhibition at 25 µM stood at 62%.
For `Nc1cccc(C#Cc2ccc(C(=O)N[C@@H](CCC(=O)O)C(=O)NCc3ccccc3)cc2)c1` [Example 12J, N^2-{4-[(3-aminophenyl)ethynyl]benzoyl}-N-benzyl-L-α-glutamine], the IC50 in assay [1] (Table 2) was roughly 8 µM; in assay [2] (Table 2) it was roughly 22 µM.
For `COc1cccc(-c2cccc(COc3ccc(-c4ccc(C(=O)N[C@@H](CCC(=O)O)C(=O)NCc5ccccc5)cc4)cc3)c2)c1` [Example 15V, N-benzyl-N^2-({4′-[(3′-methoxybiphenyl-3-yl)methoxy]biphenyl-4-yl}carbonyl)-L-α-glutamine], the “Agg1 % at concentration” value in assay [1] (Table 3, at 40 (nM)) is on record as 47% 40. Further, the IC50 in assay [2] (Table 3) turned out to be 0.7 µM.
`O=C(O)CC[C@H](NC(=O)c1ccc(-c2ccccc2)cc1)C(=O)N[C@H](CO)Cc1ccccc1` [Example 8MMMMMM, N-[(1S)-1-benzyl-2-hydroxyethyl]-N^2-(biphenyl-4-ylcarbonyl)-L-α-glutamine]: the results for the IC50 in assay [1] (Table 2) and in assay [2] (Table 2) were 0.55 µM and 5.1 µM, respectively.
For `O=C(O)CC[C@H](NC(=O)c1ccc(C#CC2(O)c3ccccc3-c3ccccc32)cc1)C(=O)NCc1ccccc1` [Example 12H, N-benzyl-N^2-{4-[(9-hydroxy-9H-fluoren-9-yl)ethynyl]benzoyl}-L-α-glutamine], the IC50 in assay [1] (Table 2) came out at 1.2 µM; in assay [2] (Table 2), 1.63 µM.
The corresponding values for `CC(C)(Cc1ccccc1)NC(=O)[C@H](CCC(=O)O)NC(=O)c1ccc(-c2ccc(O)cc2)cc1` [Example 17LL, N-(1,1-dimethyl-2-phenylethyl)-N^2-[(4′-hydroxybiphenyl-4-yl)carbonyl]-L-α-glutamine] are 0.087 µM and 1.19 µM.
The like results for `COc1cc(CNC(=O)[C@H](CCC(=O)O)NC(=O)c2ccc(-c3cc(OC)c(OC)c(OC)c3)cc2)cc(OC)c1OC` [Example 17H, N-(3,4,5-trimethoxybenzyl)-N^2-[(3′,4′,5′-trimethoxybiphenyl-4-yl)carbonyl]-L-α-glutamine] were, in that order, 1 µM and roughly 22 µM.
In the case of `CC(=O)c1ccc(-c2ccc(C(=O)N[C@@H](CCC(=O)O)C(=O)NC(C)(C)Cc3ccccc3)cc2)s1` [N^2-[4-(5-acetyl-2-thienyl)benzoyl]-N-(1,1-dimethyl-2-phenylethyl)-L-α-glutamine], the IC50 in assay [1] (Table 3) lay within 0.3 to 0.9 µM. Also, the inhibition at 2.5 µM in assay [2] (Table 3, at 2500 (nM), read-out: Agg 2 % at concentration) turned out to be 5%.
On to `CCCCN(C)C(=O)[C@H](CCC(=O)O)NC(=O)c1ccc2c(c1)Cc1ccccc1-2` [Example 8FFFFFF, N-butyl-N^2-(9H-fluoren-2-ylcarbonyl)-N-methyl-L-α-glutamine], for which the values for the IC50 in assay [1] (Table 2) and in assay [2] (Table 2) were 3.9 µM and 18.1 µM, respectively.
For the molecule `CC(C)(Cc1ccc(Cl)cc1)NC(=O)[C@H](CCC(=O)O)NC(=O)c1ccc(-c2cc(F)cc(F)c2)cc1` [Example 8DDDDDDD, N-[2-(4-chlorophenyl)-1,1-dimethylethyl]-N^2-[(3′,5′-difluorobiphenyl-4-yl)carbonyl]-L-α-glutamine], the concentration for half-maximal inhibition (IC50) in assay [1] (Table 3) was less than 0.03 µM; in assay [2] (Table 3) it was 0.22 µM.
The like results for `CC(C)(Cc1ccccc1)NC(=O)[C@H](CCC(=O)O)NC(=O)c1sccc1-c1ccccc1` [Example 8BBBBBBBBBB, N-(1,1-dimethyl-2-phenylethyl)-N^2-[(3-phenyl-2-thienyl)carbonyl]-L-α-glutamine] were, in that order, 22 µM and greater than 200 µM.
On to `Cc1ccc(-c2ccc(C(=O)N[C@@H](CCC(=O)O)C(=O)NC(C)(C)Cc3ccccc3)cc2)cc1F` [Example 17L, N-(1,1-dimethyl-2-phenylethyl)-N^2-[(3′-fluoro-4′-methylbiphenyl-4-yl)carbonyl]-L-α-glutamine], for which the values for the IC50 in assay [1] (Table 2) and in assay [2] (Table 2) were 0.133 µM and 0.226 µM, respectively.
The corresponding values for `CCOc1ccccc1-c1ccc(C(=O)N[C@@H](CCC(=O)O)C(=O)NCc2cc(OC)c(OC)c(OC)c2)cc1` [Example 17A, N^2-[(2′-ethoxybiphenyl-4-yl)carbonyl]-N-(3,4,5-trimethoxybenzyl)-L-α-glutamine] are 0.116 µM and 1.12 µM.
As for `COc1cc(OC)cc(OCc2cccc(-c3ccc(C(=O)N[C@@H](CCC(=O)O)C(=O)NCc4cccc(C)c4)cc3)c2)c1` [Example 15R, N^2-({3′-[(3,5-dimethoxyphenoxy)methyl]biphenyl-4-yl}carbonyl)-N-(3-methylbenzyl)-L-α-glutamine], the IC50 in assay [1] (Table 3) was determined as 0.56 µM. Also, the inhibition at 11 µM in assay [2] (Table 3, at 11000 (nM), read-out: Agg 2 % at concentration) came out at 48%.
Take `O=C(O)CC[C@H](NC(=O)c1ccc(Oc2ccccc2)cc1)C(=O)NCCCCCCO` [Example 8TTTT, N^1-(6-hydroxyhexyl)-N^2-(4-phenoxybenzoyl)-L-α-glutamine]: the values for the IC50 in assay [1] (Table 2) and in assay [2] (Table 2) were greater than 17 µM and greater than 22 µM, respectively.
Turning to `CC(C)(Cc1ccc(F)cc1)NC(=O)[C@@H](CCC(=O)O)NC(=O)c1ccc(-c2ccc(Cl)s2)cc1` [N^2-[4-(5-chloro-2-thienyl)benzoyl]-N-[2-(4-fluorophenyl)-1,1-dimethylethyl]-D-α-glutamine], the IC50 in assay [1] (Table 3) is greater than 0.4 µM; in assay [2] (Table 3) it was greater than 2.7 µM.
The corresponding values for `CC(C)(Cc1ccccc1)NC(=O)[C@H](CCC(=O)O)NC(=O)c1ccc(-c2ccc(COc3ccc4c(c3)OCO4)cc2)cc1` [Example 15P, N^2-({4′-[(1,3-benzodioxol-5-yloxy)methyl]biphenyl-4-yl}carbonyl)-N-(1,1-dimethyl-2-phenylethyl)-L-α-glutamine] are less than 0.03 µM and 0.255 µM.
As to `C[C@@H](NC(=O)[C@H](CCC(=O)O)NC(=O)c1ccc(-c2ccccc2)cc1)c1ccccc1` [Example 8UUUUU, N^2-(biphenyl-4-ylcarbonyl)-N^1-[(1R)-1-phenylethyl]-L-α-glutamine], the results for the IC50 in assay [1] (Table 2) and in assay [2] (Table 2) were 0.317 µM and 2.12 µM, respectively.
The corresponding values for `CCOc1cccc(-c2ccc(C(=O)N[C@@H](CCC(=O)O)C(=O)NCc3cc(OC)c(OC)c(OC)c3)cc2)c1` [Example 16, N^2-[(3′-ethoxybiphenyl-4-yl)carbonyl]-N-(3,4,5-trimethoxybenzyl)-L-α-glutamine] are less than 0.03 µM and 0.467 µM.
The corresponding values for `O=C(O)CC[C@H](NC(=O)c1ccc(-c2ccc(OCc3ccccc3)cc2)cc1)C(=O)NCc1ccccc1` [Example 15J, N-benzyl-N^2-{[4′-(benzyloxy)biphenyl-4-yl]carbonyl}-L-α-glutamine] are 0.51 µM and roughly 3.13 µM.
The like results for `COc1ccc(-c2ccc(C(=O)N[C@@H](CCC(=O)O)C(=O)NCc3cc(OC)c(OC)c(OC)c3)cc2)cc1` [Example 17B, N^2-[(4′-methoxybiphenyl-4-yl)carbonyl]-N-(3,4,5-trimethoxybenzyl)-L-α-glutamine] were, in that order, 0.204 µM and 1.02 µM.
Regarding `CC(C)(Cc1ccccc1)NC(=O)[C@H](CCC(=O)O)NC(=O)c1ccc(-c2ccccc2)s1` [Example 8OOOOOOOO, N-(1,1-dimethyl-2-phenylethyl)-N^2-[(5-phenyl-2-thienyl)carbonyl]-L-α-glutamine], the IC50 in assay [1] (Table 3) was less than 0.03 µM; in assay [2] (Table 3), 0.2 to 0.6 µM.
In the case of `O=C(O)CC[C@H](NC(=O)c1ccc(-c2ccccc2)cc1)C(=O)NCCc1ccc(-c2ccc(C(F)(F)F)cc2)cc1` [Example 10A, N^2-(biphenyl-4-ylcarbonyl)-N^1-{2-[4′-(trifluoromethyl)biphenyl-4-yl]ethyl}-L-α-glutamine], the IC50 in assay [1] (Table 1) is 0.84 µM; in assay [2] (Table 1), 2.1 µM.
